From US20190137482A1, “HIGH THROUGHPUT SCREENING OF AGENTS ON DOPAMINERGIC NEURONS” (Cell Cure Neurosciences Ltd., priority 2013, published 2019)

Assays:
[1] = tested on: dopaminergic neurons; assay: DansylD1 fluorescence in dopaminergic neurons after toxin exposure; type: cell-based, human; conditions: for DansylD1 fluorescence levels by micro-plate reader: 2 week differentiated live mature DA neurons, different toxin concentrations, 1 day, DansylD1 added again, FIG. 11
Method: For Binding and uptake of the fluorescent ligand, 500-1000 nM of DansylD1™ (Five Photon Biochemicals™, Lot#81672) was administrated to the seeded cells after 2 weeks of differentiation on the coverslips or on 12/24 wells plastic plates for 10-15 minutes in 37° C. DansylD1 functions as the dopamine neurotransmitter in binding to the D2 dopamine receptor on Dopaminergic and GABAergic neurons and uptake through the dopamine transporter (DAT) by dopaminergic neurons. 50 nM of the D2 dopamine receptor antagonist—Sulpiride (sigma S112, Lot#108H4745) or 5 nM of the dopamine transporter (DAT) blocker—GBR (Sigma G9659, Lot#086K4104), were added for 10 minutes to the seeded cells in order to reduce the binding to non-dopaminergic neurons or to block the specific DansylD1 uptake respectively. Uptake levels of the dansylD1 fluorescent ligand molecule were detected and analyzed by fluorescence microscope and a fluorescence micro-plate reader (Bioteck, 333/515 nm). Acquisition and analysis was performed using Magelan software and Microsoft Excel.
Dopaminergic neurons were fluorescently labeled with Dansyl D1. Increasing levels of 6-OH dopamine (50 nM and 100 nM) were added to the dopaminergic neurons and following 1 day of culture, the neurons were contacted again with Dansyl D1. The cells were rinsed and then the amount of fluorescence was analyzed.
(§1) An additional experiment compared the effect of 100 nM 6-OH dopamine with 200 nM 6-OH dopamine. As illustrated in FIGS. 10A-10B, after addition of 200 nM 6-OH-dopamine to mature DA neurons the fluorescence levels of dansylD1 was decreased (green) and also the percentage of cells expressing TH (DA neuron marker) declined to 1-2% (FIGS. 10C and D).
(§2) Dansyl D1 was added to 2 week differentiated live mature DA neurons and the fluorescence levels quantified by fluorescence micro-plate reader. Later the cells were washed and different 6-OH-dopamine concentrations were added. After a day, dansylD1 was added again and the fluorescent levels measured once again.

[2] = tested on: mature DA neurons; assay: TH expression in mature DA neurons after toxin exposure; type: cell-based, human
Method: For staining, cells on the coverslips were blocked in 5% normal goat/donkey serum (NGS) for 1 hour at room temperature. The anti TH antibody was diluted 1:100 or 1:1000 in 1% normal donkey/goat serum (NGS) and applied for 1 hour at room temperature. The antibodies that was employed were rabbit anti-human TH polyclonal antibody or mouse anti-human TH monoclonal antibody, Cat No. p40101, purchased from Pel-freez, or Cat No. T1299 purchased from Sigma and rabbit anti hu Nurr1 ab AB5778 (Millipore 10 ug/ml) or mouse igG anti NurrI (millipore, 1:200 or 1:1000), Rabbit Anti DAT AB5802 (Millipore, 1:500-1:1000). Following three washes in PBS, swine-anti rabbit FITC or goat anti mouse Cy-3-antibody diluted 1:50 or 1:500 in 1% normal goat serum (NGS) was applied for 1 hour at room temperature. Cells were washed in PBS, fixed with 4% PFA and mounted in the presence of the nuclear counterstain DAPI for immunofluoresecent microscopic examination.
as §1

[3] = tested on: PC12 cells; assay: DansylD1 uptake calibration in PC-12 cells (fluorescence microscope); type: cell-based; conditions: 500 nM DansylD1, dopamine as competitive inhibitor, GBR as dopamine transporter blocker, FIGS. 3A-3D
Method: (§3) For Binding and uptake of the fluorescent ligand, 500-1000 nM of DansylD1™ (Five Photon Biochemicals™, Lot#81672) was administrated to the seeded cells after 2 weeks of differentiation on the coverslips or on 12/24 wells plastic plates for 10-15 minutes in 37° C. […] Uptake levels of the dansylD1 fluorescent ligand molecule were detected and analyzed by fluorescence microscope and a fluorescence micro-plate reader (Bioteck, 333/515 nm). Acquisition and analysis was performed using Magelan software and Microsoft Excel.

[4] = tested on: hESC-derived dopaminergic neurons; assay: DansylD1 labeling and uptake in hESC-derived dopaminergic neurons; type: cell-based, human; conditions: for DansylD1 fluorescence level: hESC-derived dopaminergic neurons after 26 days of differentiation, agent present in the medium, FIGS. 6A-6D
From the text: In order to direct the differentiation of hESCs into DA neurons, the cells were first directed to become neural progenitors within free-floating spheres (2 weeks) in the presence of the dual SMAD inhibitors (LDN193189+SB431542), FGF8, Purmorphamine and CHIR. They were further directed to differentiate into DA progenitors (7 days) as adherent cultures on laminin/fibronectin in the presence of FGF8, Purmorphamine and CHIR. Finally, they were differentiated into mature DA neurons (7 days) in the presence of the following factors (BDNF, NT4, AA, db-cAMP, TGFbeta3, GDNF and DAPT). The relevant factors/mitogens were replaced every 2-3 days.
as §3
The neuronal culture was incubated in the presence of the D2 antagonist Sulpiride.

[5] = tested on: DA neurons; assay: Protection of DA neurons from the toxin 6-OH dopamine; type: cell-based, human; conditions: cells over-expressing GDNF; FIG. 12
Method: as §2

[6] = 200 nM toxin, mature DA neurons

NCCc1cc(O)c(O)cc1O [6-OH-dopamine]
amount of Dansyl D1 fluorescence in dopaminergic cells ([1]; 50 nM and 100 nM toxin, 1 day of culture, relabeled with Dansyl D1, FIGS. 10A-10C): reduced
Dansyl-D1 uptake ([1]; 100 nM toxin): significant decrease
fluorescence levels of dansylD1 [1, 6]: decreased
DansylD1 fluorescence levels by micro-plate reader [1]: decreased by half
DansylD1 fluorescence levels by micro-plate reader ([1]; listed as 6-OH dopamine): reduced in correlation with the amount of toxin
TH positive cells ([2]; 100 nM toxin): only minor reduction
percentage of cells expressing TH [2, 6]: 1-2%

Cl.Cl.Fc1ccc(C(OCCN2CCN(CCCc3ccccc3)CC2)c2ccc(F)cc2)cc1 [GBR]
amount of DansylD1 fluorescence in the cells [3]: decreased the amount of fluorescence
DansylD1 fluorescence level [4]: caused the fluorescence level to decline

NCCc1ccc(O)c(O)c1 [dopamine]
amount of DansylD1 fluorescence in the cells [3]: decreased the amount of fluorescence
DansylD1 fluorescence level [4]: caused the fluorescence level to decline

CCN1CCCC1CNC(=O)c1cc(S(N)(=O)=O)ccc1OC (stereo not shown) [sulpiride]
DansylD1 signal from the cells surface ([4]; neuronal culture incubated with the D2 antagonist, fluorescent vesicles appear, FIGS. 8A-8B): less signal from the cells surface

B1: GDNF: neurotrophic factor over-expressed by cells that protected DA neurons from the toxin (protein, UniProt P39905 78-211, looked up)
Glial cell line-derived …: SPDKQMAVLPRRERNRQAAAANPENSRGKGRRGQRGKNRGCVLTAIHLNVTDLGLGYETKEELIFRYCSGSCDAAETTYDKILKNLSRNRRLVSDKVGQACCRPIAFDDDLSFLDDNLVYHILRKHSAKRCGCI
protection of neurons from the toxin 6-OH dopamine [5]: protected
